The target in assay [1] is TropB (Talaromyces stipitatus, UniProt B8M9J8). Description: change in absorbance at […] nm. It is filed as binding.
In assay [2] the target is TropB (Talaromyces stipitatus, UniProt B8M9J8, R206Q). Briefly: change in absorbance at […] nm. It is filed as binding.
TropB (Talaromyces stipitatus, UniProt B8M9J8, R206Q), sequence (B8M9J8 whole entry R206Q): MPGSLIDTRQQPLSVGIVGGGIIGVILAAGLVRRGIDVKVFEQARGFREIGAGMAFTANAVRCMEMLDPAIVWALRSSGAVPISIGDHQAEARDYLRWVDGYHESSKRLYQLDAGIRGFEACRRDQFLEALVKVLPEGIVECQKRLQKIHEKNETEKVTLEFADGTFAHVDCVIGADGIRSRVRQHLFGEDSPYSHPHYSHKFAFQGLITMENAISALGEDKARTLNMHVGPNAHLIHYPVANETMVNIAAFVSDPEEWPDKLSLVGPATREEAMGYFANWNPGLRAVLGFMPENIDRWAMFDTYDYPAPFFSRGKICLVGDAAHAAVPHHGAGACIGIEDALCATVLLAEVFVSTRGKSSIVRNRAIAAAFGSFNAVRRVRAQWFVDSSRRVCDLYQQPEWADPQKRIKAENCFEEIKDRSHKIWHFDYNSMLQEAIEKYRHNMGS

TropB (Talaromyces stipitatus, UniProt B8M9J8), sequence (B8M9J8 whole entry): as the sequence (B8M9J8 whole entry R206Q) above, with Q206R counted along it

One may read the Kd as the concentration at which binding is half-saturated. With `Cc1cc(O)c(C)c(O)c1C=O` [compound 1, 3-methylorcinaldehyde], the figures for the Kd on TropB [1] and on TropB [2] were 21 ± 2 µM and 32 ± 4 µM, respectively.

The values are drawn from paper PMC6658140 (ACS catalysis, 2019).
